Results on three compounds are retold here after publication PMC8365601, “Terphenyl-Based Small-Molecule Inhibitors of Programmed Cell Death-1/Programmed Death-Ligand 1 Protein–Protein Interaction” (Journal of Medicinal Chemistry, 2021).

The target of data set [1] is T1, PD-1/PD-L1 interaction (Homo sapiens, UniProt Q9NZQ7).
T1 construct: host or cells: CHO-K1 (CHO/TCRAct/PD-L1) and Jurkat effector cells
Nature of the data set: PD-1/PD-L1 ICB assay (Jurkat-ECs with CHO/TCRAct/PD-L1 cells, luciferase). The conditions noted are these: for selectivity of PD-1/PD-L1-blocking activity versus cytotoxicity: EC50 (tox.) vs EC50 (bio.), Figure 3F; for EC50: Jurkat-ECs with CHO/TCRAct/PD-L1, 6 h, SI csv, read-out: Bioactivity (EC50 in the ICB assay). In kind it is cell-based. The method, then:
After a successful optimization of the terphenyl compounds, the activity of the optimized molecules 7a and 8a–j in a cellular context was assessed. To this end, we first performed the PD-1/PD-L1 ICB assay. In this assay, T-cell receptor (TCR)-mediated activation of Jurkat effector cells (Jurkat-ECs) is reduced by the presence of PD-L1, exposed at the surface of CHO/TCRAct/PD-L1 cells (Figure 3A).
(§1) The functional assay of the blockade of PD-1/PD-L1 interaction in vitro (PD-1/PD-L1 Blockade Bioassay, Promega) was performed according to the manufacturer’s protocol. CHO/TCRAct/PD-L1 cells or CHO/TCRAct or CHO-K1 cells were seeded on 96-well white plates at the density of 10,000 cells/well and the next day overlaid with Jurkat T cells (20,000 cells/well) in the presence of increasing concentrations of the compounds with DMSO only as a control (the concentration of DMSO was kept constant at 0.1%) or atezolizumab, as a positive control, anti-PD-L1 monoclonal antibody (Selleckchem). The 2.5-fold dilutions of atezolizumab were prepared in the assay buffer (RPMI 1640 + 1% FBS) on the day of the assay. Activation of the Jurkat T cells, reflected by luciferase activity, was monitored by luminescence measurements after 6 h of incubation (37 °C, 5% CO2), and 20 min of additional incubation with the Bio-Glo assay reagent (Promega) at room temperature. The luminescence was read on a Spark microplate reader (Tecan). The data are presented as fold induction of the luminescence signal relative to either untreated (for atezolizumab) or DMSO-treated (for compound) cells. Data points represent mean ± SD values from three to five independent experiments. Half-maximal effective concentrations (EC50 values) were calculated from the Hill curve fitting to the experimental data using Origin Pro 2020 software (OriginLab).

The nature of data set [2]: Cytotoxicity assay toward Jurkat-ECs. It counts as cell-based. The conditions noted are these: human, Jurkat-EC cells, SI csv. The method, then:
The cytotoxicity of compounds was verified toward Jurkat-ECs since these cells provide the readout in the ICB assay and present a much higher degree of susceptibility to the compounds’ toxicity than CHO-K1 cells (not shown). Jurkat-ECs were seeded on 96-well transparent plates in the presence of increasing concentrations of the compounds with DMSO-treated cells as a control. The concentration of DMSO was kept constant (0.1%). After 48 h of incubation, a tetrazolium reagent, Biolog redox dye MIX MB (Biolog), was added according to the manufacturer’s protocol, and the culture plates were incubated for an additional 2 h (37 °C, 5% CO2). The absorbance was measured using a Spark microplate reader (Tecan) at 590 nm with 750 nm as a reference. The data are presented as Jurkat-EC survival relative to DMSO-treated control cells. Data points represent mean ± SD values from three independent experiments. Half-maximal effective concentrations (EC50 values) were calculated from the dose–response curve using OriginPro 2020 (OriginLab) software.

Data set [3] deals with primary CD4+ and CD8+ T cells (PBMCs). Put plainly: T-cell activation (TCA) assay, PBMCs with CHO/TCRAct/PD-L1 cells, flow cytometry. The conditions noted are these: 48 h; compounds 0.1, 0.5, 2.5 μM; mAbs 5 μg/mL. It counts as cell-based, human. The method, then: A standard ICB assay relies on artificial Jurkat-ECs, which are surrogates of T-cells. To verify the potential of the compounds to reactivate the PD-L1-blocked primary T cells, a modified assay termed T-cell activation (TCA) was carried out.[32] In this assay, human primary peripheral blood mononuclear cells (PBMCs) are allowed to make contact with CHO/TCRAct/PD-L1 cells alone or in the presence of PD-1/PD-L1 blockers, and the activation of CD4^+ and CD8^+ T cell is monitored by flow cytometry.
Anticoagulant citrate dextrose-A-treated blood from healthy donors was purchased from the Regional Center of Blood Donation and Blood Therapy in Krakow, Poland. PBMCs were isolated from whole blood by density gradient centrifugation using Pancoll human separating solution (PAN-Biotech GmbH, Aidenbach, Germany). The separated cells were washed and resuspended in RPMI 1640 medium (Biowest) containing 10% FBS (Biowest). PBMCs were added at an amount of 3 × 10^5 to CHO, CHO/TCRAct, or CHO/TCRAct/PD-L1 cells preseeded on 24-well plates in the presence of either anti-PD-L1 mAbs (at the final concentration 5 μg/mL): durvalumab (Selleckchem), atezolizumab (Selleckchem), or avelumab (MedChemExpress) or tested compounds at the concentrations 0.1, 0.5, and 2.5 μM. Untreated cells were used as controls for antibody treatment, while DMSO-treated cells [0.1% (v/v)] were used as controls for compound treatment. The cells were incubated for 48 h (37 °C, 5% CO2) and then detached from the plates with TrypLe Select Enzyme (Thermo Fisher). PBMCs were stained for 20 min at room temperature with the antibodies: anti-CD4-FITC, anti-CD8-BV510, anti-CD69-APC, anti-CD25-PE, anti-HLA-DR-PerCP, and anti-PD1-PECy7 (Becton Dickinson Biosciences, BD). Following two washing steps, the cells were analyzed with a FACSCanto II cytometer. Data analysis was carried out with FlowJo software, followed by statistical significance calculations done with Origin Pro 2020 software (OriginLab). Statistical significance was analyzed with one-way analysis of variance (ANOVA), followed by the Fisher’s posthoc test: *p < 0.05, **p < 0.01, […].
(In general: In flow cytometry, cells or beads pass a laser one at a time.)

In data set [4] the test system is Jurkat-ECs alone or with CHO wt or CHO/TCRAct cells. Nature of the data set: ICB assay control where PD-L1 is absent. It counts as cell-based. The following applies: 6 h; Figure S1. The method, then: as §1, with “(OriginLab). […]” for “(OriginLab).”
of the Immune Checkpoint Blockade (ICB) assay, where 8h, 8i, and 8j were used to restore the activation of effector Jurkat-ECs. Jurkat-ECs were either kept alone, or contacted with one of the following cell lines: wild type CHO K1 cells (CHO wt), CHO K1 cells expressing TCR Activator (CHO/TCRAct), or CHO K1 cells expressing TCR Activator and […]. The cells were incubated with the indicated concentrations of the compounds for 6 hours and luminescence was measured as an indicator of TCR-dependent activation of Jurkat-ECs. The graphs present fold induction of the luminescence signal relative to DMSO-treated cells. […]

Data set [5] has as its target PD-1/PD-L1 complex (Homo sapiens, UniProt Q9NZQ7). Nature of the data set: HTRF assay of PD-1/PD-L1 complex dissociation (CisBio).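 As to all read-outs here: human PD-L1 at 5 nM with human PD-1 at 50 nM, TR-FRET signal read after 2 h at room temperature, background removed via negative control and scaled to positive control.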 The conditions noted are these: for remaining activity at 0.005 µM: 2 h; for IC50: HTRF, Table 4, <1.00 = limit of quantification reached. For orientation: In TR-FRET formats the signal depends on donor and acceptor labels being close together.
Description: HTRF was performed using the certified CisBio assay according to the manufacturer’s guidelines. The experiments were performed at 5 nM h-PD-L1 and 50 nM hPD-1 in the final formulation at 20 μL final volume in the well. To determine the half-maximal inhibitory concentration (IC50) of tested compounds, measurements were performed on two individual dilution series, unless states otherwise. After mixing all components according to the CisBio protocol, the plate was left for 2 h incubation at room temperature, followed by time-resolved fluorescence energy transfer (TR-FRET) measurement on Tecan Spark 20M. Collected data were background-subtracted on the negative control, normalized on the positive control, averaged, and fitted with normalized Hill’s equation to determine the IC50 value using Mathematica 12.

The subject of data set [6] is PBMCs cocultured with CHO/TCRAct/PD-L1 cells. Nature of the data set: Cytokine accumulation in culture media of the TCA assay (CBA Th1/Th2/Th17 kit). It counts as cell-based, human. The following applies: TCA assay supernatants, four donors. The method, then: In addition to the expression of surface markers, the accumulation of immune-related cytokines in the culture media collected in the TCA assay was monitored with the cytometric bead array (CBA) human Th1/Th2/Th17 kit. […] Also, the levels of IL-6, IFN-γ, and IL-2 increased, but these increases were not statistically significant.
The concentration of the cytokines (IL-2, IL-4, IL-6, IL-10, IL-17A, IFN-γ, and TNFα) in supernatants was determined using the CBA Human Th1/Th2/Th17 kit (BD Biosciences), with data acquisition using the FACSCanto flow cytometer. The CBA beads were discriminated in FL-4 and FL-5 channels, while the concentration of specified cytokines was determined by the intensity of FL-2 fluorescence, using the respective standard reference curve and FCAP Array software (BD Biosciences). IL-4 was below the detection level and is not presented in the manuscript. Statistical significance was analyzed with one-way ANOVA using the Origin Pro 2020 software, followed by the Fisher’s posthoc test: *p < 0.05, **p < 0.01, […].

Where [7] appears, read: read-out: % of undissociated complex at 5 nM.
Setting [8] is: read-out: HTRF % of the undissociated complex at 5 nM.

Read-outs that look alike come from different tables or passages of the source.

Chain of PD-1/PD-L1 complex (Q9NZQ7 19-238 limits assumed, one chain of several): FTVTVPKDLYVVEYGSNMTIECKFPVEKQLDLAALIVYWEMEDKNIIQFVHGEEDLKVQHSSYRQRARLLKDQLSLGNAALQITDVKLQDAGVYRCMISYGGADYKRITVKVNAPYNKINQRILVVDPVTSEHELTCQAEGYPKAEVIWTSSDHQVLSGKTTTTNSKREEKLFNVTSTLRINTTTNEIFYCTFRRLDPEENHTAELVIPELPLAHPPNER
T1 sequence (Q9NZQ7 19-290): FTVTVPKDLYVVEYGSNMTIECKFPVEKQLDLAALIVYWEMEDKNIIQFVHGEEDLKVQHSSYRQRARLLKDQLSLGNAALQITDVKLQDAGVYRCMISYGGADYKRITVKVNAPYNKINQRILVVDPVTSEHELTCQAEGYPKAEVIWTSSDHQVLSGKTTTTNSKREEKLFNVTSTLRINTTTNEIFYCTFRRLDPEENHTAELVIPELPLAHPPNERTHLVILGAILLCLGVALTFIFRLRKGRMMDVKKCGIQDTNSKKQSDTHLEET

For orientation: EC50 means the concentration giving half of the maximal effect. In general, IC50 refers to the concentration at which inhibition is half-maximal. The low end stands for greater potency, the high end for weaker potency. In the case of `COc1cc(-c2cccc(-c3ccc4c(c3)OCCO4)c2Cl)ccc1CNCCNC(N)=O` [8h, 1-(2-(((3′-(Benzo-1,4-dioxan-6-yl)-2′-chloro-3-methoxy-[1,1′-biphenyl]-4-yl)methyl)amino)ethyl)urea], in data set [1], the “selectivity of PD-1/PD-L1-blocking activity versus cytotoxicity” value was “highest selectivity” and the EC50 is 2000 ± 370 nM. The same compound yielded an EC50 at 48 h in data set [2] of 4140 ± 710 nM. In addition, the “numbers of PD-1-positive T cells” value in data set [3] is on record as “significant increase”. For the same compound, in data set [4], the “activation of Jurkat-ECs where PD-L1 is absent” value is “requires the presence of PD-L1”. In data set [5] (setting [7]), the remaining activity at 0.005 µM turned out to be 6%. Also, in data set [5] (setting [8]), the remaining activity at 0.005 µM worked out at 6%. For the same compound, in data set [5], the IC50 was below 1 nM.

Take `COc1cc(-c2cccc(-c3ccc4c(c3)OCCO4)c2Cl)ccc1CNC(CO)CO` [8i, 2-(((3′-(Benzo-1,4-dioxan-6-yl)-2′-chloro-3-methoxy-[1,1′-biphenyl]-4-yl)methyl)amino)propane-1,3-diol]: the “selectivity of PD-1/PD-L1-blocking activity versus cytotoxicity” value in data set [1] is “highest selectivity”. Further, the 50% effective concentration (EC50) in data set [1] was 2570 ± 450 nM. In data set [2], this compound displayed an EC50 at 48 h of 4630 ± 350 nM. For the same compound, the “activation of Jurkat-ECs where PD-L1 is absent” value in data set [4] is on record as “requires the presence of PD-L1”. In addition, the remaining activity at 0.005 µM in data set [5] (setting [7]) and in data set [5] (setting [8]) was 0% each time. This compound also yielded an IC50 in data set [5] below 1 nM.

As to “atezolizumab: therapeutic anti-PD-L1 monoclonal antibody, positive control”, in data set [1] (6 h, fold induction of luminescence), the “activation of Jurkat-ECs” value was “full activation of Jurkat-ECs is restored”. In addition, the “accumulation of immune-related cytokines in culture media” value in data set [6] was “significantly increased levels of IL-17A, TNF-α, and IL-10”. For the same compound, in data set [3], the “numbers of PD-1-positive T cells” value is recorded as “increases the expression of PD-1 on T-cells”.
